Test results from ChEMBL document CHEMBL1142149, “In vitro activities of the lipopeptides palmitoyl (Pal)-Lys-Lys-NH(2) and Pal-Lys-Lys alone and in combination with antimicrobial agents against multiresistant gram-positive cocci” (2007).
In brackets after ≈: the same amount, converted by molar mass. Activity calls are given as the source filed them. The calls are words filed in the database; no cut-off is given here.

What was measured:
Staphylococcus aureus [1] = experiment: Antimicrobial activity against methicillin-resistant Staphylococcus aureus ATCC 43300; format: functional; conditions: for MIC50 / MIC90: Staphylococcus aureus, ATCC 43300
Staphylococcus aureus [2] = experiment: Antimicrobial activity against methicillin-susceptible Staphylococcus aureus ATCC 29213; format: functional; conditions: for MIC50 / MIC90: Staphylococcus aureus, ATCC 29213
Enterococcus faecalis [3] = experiment: Antimicrobial activity against vancomycin-susceptible Enterococcus faecalis ATCC 29212; format: functional; conditions: for MIC50 / MIC90: Enterococcus faecalis, ATCC 29212
Enterococcus faecalis [4] = experiment: Antimicrobial activity against vancomycin-resistant Enterococcus faecalis ATCC 51299; format: functional; conditions: for MIC50 / MIC90: Enterococcus faecalis, ATCC 51299
Streptococcus pyogenes = experiment: Antimicrobial activity against Streptococcus pyogenes ATCC 19615; format: functional; conditions: for MIC50 / MIC90: Streptococcus pyogenes, ATCC 19615
Prescottella equi = experiment: Antimicrobial activity against Rhodococcus equi ATCC 6939; format: functional; conditions: for MIC50 / MIC90: Rhodococcus (subgen. Prescottella) equi, ATCC 6939
Erythrocyte [5] = experiment: Effect on hemolytic activity in human RBC above 20 mg/liter; format: functional, cell-based
Erythrocyte [6] = experiment: Effect on hemolytic activity in human RBC above 50 mg/liter; format: functional, cell-based

Row | SMILES | MIC50 (Staphylococcus aureus [1]) | MIC90 (Staphylococcus aureus [1]) | MBC50 (Staphylococcus aureus [2]) | MBC90 (Staphylococcus aureus [2]) | MIC50 (Staphylococcus aureus [2]) | MIC90 (Staphylococcus aureus [2]) | MBC50 (Enterococcus faecalis [3]) | MBC90 (Enterococcus faecalis [3]) | MIC50 (Enterococcus faecalis [3]) | MIC90 (Enterococcus faecalis [3]) | MIC50 (Enterococcus faecalis [4]) | MIC90 (Enterococcus faecalis [4]) | MBC50 (Streptococcus pyogenes) | MBC90 (Streptococcus pyogenes) | MIC50 (Streptococcus pyogenes) | MIC90 (Streptococcus pyogenes) | MBC50 (Prescottella equi) | MBC90 (Prescottella equi) | MIC50 (Prescottella equi) | MIC90 (Prescottella equi) | also measured
1 | CCCCCCCCCCCCCCCC(=O)N[C@@H](CCCCN)C(=O)N[C@@H](CCCCN)C(N)=O | 4 µg/mL (≈ 7.82 µM) | 8 µg/mL (≈ 15.6 µM) | 8 µg/mL (≈ 15.6 µM) | 16 µg/mL (≈ 31.3 µM) | 4 µg/mL (≈ 7.82 µM) | 8 µg/mL (≈ 15.6 µM) | 4 µg/mL (≈ 7.82 µM) | 8 µg/mL (≈ 15.6 µM) | 2 µg/mL (≈ 3.91 µM) | 4 µg/mL (≈ 7.82 µM) | 2 µg/mL (≈ 3.91 µM) | 4 µg/mL (≈ 7.82 µM) | 2 µg/mL (≈ 3.91 µM) | 4 µg/mL (≈ 7.82 µM) | 1 µg/mL (≈ 1.95 µM) | 2 µg/mL (≈ 3.91 µM) | 8 µg/mL (≈ 15.6 µM) | 32 µg/mL (≈ 62.5 µM) | 4 µg/mL (≈ 7.82 µM) | 16 µg/mL (≈ 31.3 µM) | MBC90 (Enterococcus faecalis [4]): 16 µg/mL (≈ 31.3 µM); Activity (Erythrocyte [5]): Active
2 | CC[C@H]1OC(=O)[C@H](C)[C@@H](O[C@H]2C[C@@](C)(OC)[C@@H](O)[C@H](C)O2)[C@H](C)[C@@H](O[C@@H]2O[C@H](C)C[C@H](N(C)C)[C@H]2O)[C@](C)(O)C[C@@H](C)C(=O)[C@H](C)[C@@H](O)[C@]1(C)O [ERYTHROMYCIN] | 4 µg/mL (≈ 5.45 µM) | 32 µg/mL (≈ 43.6 µM) | 16 µg/mL (≈ 21.8 µM) | 64 µg/mL (≈ 87.2 µM) | 4 µg/mL (≈ 5.45 µM) | 8 µg/mL (≈ 10.9 µM) | 32 µg/mL (≈ 43.6 µM) | – | 8 µg/mL (≈ 10.9 µM) | 32 µg/mL (≈ 43.6 µM) | 16 µg/mL (≈ 21.8 µM) | 64 µg/mL (≈ 87.2 µM) | 8 µg/mL (≈ 10.9 µM) | 32 µg/mL (≈ 43.6 µM) | 4 µg/mL (≈ 5.45 µM) | 8 µg/mL (≈ 10.9 µM) | 32 µg/mL (≈ 43.6 µM) | 64 µg/mL (≈ 87.2 µM) | 0.5 µg/mL (≈ 0.681 µM) | 2 µg/mL (≈ 2.73 µM) | MBC50 (Staphylococcus aureus [1]): 32 µg/mL (≈ 43.6 µM)
3 | C[C@@H](O)[C@H]1C(=O)N2C(C(=O)O)=C(SCCNC=N)C[C@H]12 [IMIPENEM ANHYDROUS] | 16 µg/mL (≈ 53.4 µM) | 128 µg/mL (≈ 428 µM) | 4 µg/mL (≈ 13.4 µM) | 8 µg/mL (≈ 26.7 µM) | 0.5 µg/mL (≈ 1.67 µM) | 2 µg/mL (≈ 6.68 µM) | 16 µg/mL (≈ 53.4 µM) | 64 µg/mL (≈ 214 µM) | 4 µg/mL (≈ 13.4 µM) | 16 µg/mL (≈ 53.4 µM) | 16 µg/mL (≈ 53.4 µM) | 64 µg/mL (≈ 214 µM) | 1 µg/mL (≈ 3.34 µM) | 4 µg/mL (≈ 13.4 µM) | 0.5 µg/mL (≈ 1.67 µM) | 1 µg/mL (≈ 3.34 µM) | 8 µg/mL (≈ 26.7 µM) | 16 µg/mL (≈ 53.4 µM) | 0.25 µg/mL (≈ 0.835 µM) | 1 µg/mL (≈ 3.34 µM) | MBC50 (Staphylococcus aureus [1]): 64 µg/mL (≈ 214 µM); MBC90 (Staphylococcus aureus [1]): 256 µg/mL (≈ 855 µM); MBC50 (Enterococcus faecalis [4]): 64 µg/mL (≈ 214 µM); MBC90 (Enterococcus faecalis [4]): 128 µg/mL (≈ 428 µM)
4 | CC(=O)NC[C@H]1CN(c2ccc(N3CCOCC3)c(F)c2)C(=O)O1 [LINEZOLID] | 0.5 µg/mL (≈ 1.48 µM) | 1 µg/mL (≈ 2.96 µM) | 1 µg/mL (≈ 2.96 µM) | 2 µg/mL (≈ 5.93 µM) | 0.5 µg/mL (≈ 1.48 µM) | 2 µg/mL (≈ 5.93 µM) | 2 µg/mL (≈ 5.93 µM) | 4 µg/mL (≈ 11.9 µM) | 1 µg/mL (≈ 2.96 µM) | 2 µg/mL (≈ 5.93 µM) | 1 µg/mL (≈ 2.96 µM) | 2 µg/mL (≈ 5.93 µM) | 1 µg/mL (≈ 2.96 µM) | 2 µg/mL (≈ 5.93 µM) | 0.5 µg/mL (≈ 1.48 µM) | 1 µg/mL (≈ 2.96 µM) | 8 µg/mL (≈ 23.7 µM) | 16 µg/mL (≈ 47.4 µM) | 0.5 µg/mL (≈ 1.48 µM) | 1 µg/mL (≈ 2.96 µM) | MBC50 (Staphylococcus aureus [1]): 0.5 µg/mL (≈ 1.48 µM); MBC50 (Enterococcus faecalis [4]): 4 µg/mL (≈ 11.9 µM)
5 | C[C@H]1c2cccc(O)c2C(=O)C2=C(O)[C@]3(O)C(=O)C(C(N)=O)=C(O)[C@@H](N(C)C)[C@@H]3[C@@H](O)[C@@H]21.O [DOXYCYCLINE] | 4 µg/mL | 16 µg/mL | 8 µg/mL | 32 µg/mL | 2 µg/mL | 8 µg/mL | 16 µg/mL | 64 µg/mL | 4 µg/mL | 32 µg/mL | 16 µg/mL | 64 µg/mL | 8 µg/mL | 16 µg/mL | 2 µg/mL | 8 µg/mL | 32 µg/mL | 128 µg/mL | 1 µg/mL | 2 µg/mL | –
6 | CC1(C)S[C@@H]2[C@H](NC(=O)[C@H](N)c3ccc(O)cc3)C(=O)N2[C@H]1C(=O)O [AMOXICILLIN] | 32 µg/mL (≈ 87.6 µM) | 128 µg/mL (≈ 350 µM) | 8 µg/mL (≈ 21.9 µM) | 16 µg/mL (≈ 43.8 µM) | 1 µg/mL (≈ 2.74 µM) | 4 µg/mL (≈ 10.9 µM) | 16 µg/mL (≈ 43.8 µM) | 64 µg/mL (≈ 175 µM) | 4 µg/mL (≈ 10.9 µM) | 16 µg/mL (≈ 43.8 µM) | 16 µg/mL (≈ 43.8 µM) | 64 µg/mL (≈ 175 µM) | 4 µg/mL (≈ 10.9 µM) | 8 µg/mL (≈ 21.9 µM) | 0.25 µg/mL (≈ 0.684 µM) | 2 µg/mL (≈ 5.47 µM) | 8 µg/mL (≈ 21.9 µM) | 32 µg/mL (≈ 87.6 µM) | 1 µg/mL (≈ 2.74 µM) | 2 µg/mL (≈ 5.47 µM) | MBC50 (Staphylococcus aureus [1]): 64 µg/mL (≈ 175 µM); MBC90 (Staphylococcus aureus [1]): 256 µg/mL (≈ 701 µM); MBC50 (Enterococcus faecalis [4]): 64 µg/mL (≈ 175 µM); MBC90 (Enterococcus faecalis [4]): 128 µg/mL (≈ 350 µM)
7 | CCCCCCCCCCCCCCCC(=O)N[C@@H](CCCCN)C(=O)N[C@@H](CCCCN)C(=O)O | 4 µg/mL (≈ 7.8 µM) | 8 µg/mL (≈ 15.6 µM) | 8 µg/mL (≈ 15.6 µM) | 16 µg/mL (≈ 31.2 µM) | 4 µg/mL (≈ 7.8 µM) | 8 µg/mL (≈ 15.6 µM) | 4 µg/mL (≈ 7.8 µM) | 8 µg/mL (≈ 15.6 µM) | 2 µg/mL (≈ 3.9 µM) | 4 µg/mL (≈ 7.8 µM) | 2 µg/mL (≈ 3.9 µM) | 4 µg/mL (≈ 7.8 µM) | 2 µg/mL (≈ 3.9 µM) | 4 µg/mL (≈ 7.8 µM) | 1 µg/mL (≈ 1.95 µM) | 2 µg/mL (≈ 3.9 µM) | 4 µg/mL (≈ 7.8 µM) | 16 µg/mL (≈ 31.2 µM) | 2 µg/mL (≈ 3.9 µM) | 16 µg/mL (≈ 31.2 µM) | MBC90 (Enterococcus faecalis [4]): 16 µg/mL (≈ 31.2 µM); Activity (Erythrocyte [6]): Active
8 | CN[C@H](CC(C)C)C(=O)N[C@H]1C(=O)N[C@@H](CC(N)=O)C(=O)N[C@H]2C(=O)N[C@H]3C(=O)N[C@H](C(=O)N[C@H](C(=O)O)c4cc(O)cc(O)c4-c4cc3ccc4O)[C@H](O)c3ccc(c(Cl)c3)Oc3cc2cc(c3O[C@@H]2O[C@H](CO)[C@@H](O)[C@H](O)[C@H]2O[C@H]2C[C@](C)(N)[C@H](O)[C@H](C)O2)Oc2ccc(cc2Cl)[C@H]1O [VANCOMYCIN] | 0.5 µg/mL (≈ 0.345 µM) | 2 µg/mL (≈ 1.38 µM) | 0.5 µg/mL (≈ 0.345 µM) | 2 µg/mL (≈ 1.38 µM) | 0.5 µg/mL (≈ 0.345 µM) | 1 µg/mL (≈ 0.69 µM) | 2 µg/mL (≈ 1.38 µM) | 4 µg/mL (≈ 2.76 µM) | 1 µg/mL (≈ 0.69 µM) | 2 µg/mL (≈ 1.38 µM) | 32 µg/mL (≈ 22.1 µM) | 64 µg/mL (≈ 44.2 µM) | 1 µg/mL (≈ 0.69 µM) | 2 µg/mL (≈ 1.38 µM) | 0.5 µg/mL (≈ 0.345 µM) | 1 µg/mL (≈ 0.69 µM) | 8 µg/mL (≈ 5.52 µM) | 16 µg/mL (≈ 11 µM) | 0.5 µg/mL (≈ 0.345 µM) | 1 µg/mL (≈ 0.69 µM) | MBC50 (Staphylococcus aureus [1]): 0.5 µg/mL (≈ 0.345 µM); MBC90 (Staphylococcus aureus [1]): 2 µg/mL (≈ 1.38 µM); MBC50 (Enterococcus faecalis [4]): 64 µg/mL (≈ 44.2 µM); MBC90 (Enterococcus faecalis [4]): 256 µg/mL (≈ 177 µM)
